Results taken from patent US20240270821A1, “GIP/GLP1/GCG TRI-RECEPTOR AGONISTS AND USES THEREOF” (priority 2023, published 2024).
Like-named read-outs stand apart in the source and are kept apart here. Starred links: 1 amine or outer side, 2 acyl side, 3 side chain; linkers in the order of their positions; H or OH if unused. Non-standard residues stand in square brackets, D forms with d. Residues, ends and D or L forms follow the SMILES beside them. Groups on a side chain read outwards from the residue. *: point of attachment. C18 diacid = O=C(O)CCCCCCCCCCCCCCCCC(=O)*; αMePhe(2-F) = C[C@](N)(Cc1ccccc1F)C(=O)O; γGlu = O=C(O)[C@H](CCC(=O)[*:2])N[*:1]; αMe4Pal = C[C@](N)(Cc1ccncc1)C(=O)O; αMeY = C[C@](N)(Cc1ccc(O)cc1)C(=O)O; αMeF = C[C@](N)(Cc1ccccc1)C(=O)O; 4Pal = N[C@@H](Cc1ccncc1)C(=O)O; αMeL = CC(C)C[C@](C)(N)C(=O)O; αMeS = C[C@](N)(CO)C(=O)O; Orn = NCCC[C@H](N)C(=O)O; AEEA = NCCOCCOCC(=O)O; Aib = CC(C)(N)C(=O)O

Key:
Format in all cases: cell-based
[1] = target: T1, hGLP-1R (Homo sapiens, UniProt P43220); test: Functional cAMP activation in the presence of 0.1% casein (no HSA); conditions: read-out: Relative cAMP EC50, hGLP-1R;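 also: intracellular cAMP rise after 30 min at 37 °C read by HTRF, normalized between buffer only (0%) and maximal control ligand (100%), four-parameter variable-slope fit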
[2] = target: human GcgR (Homo sapiens, UniProt P47871); test: Functional cAMP activity in the presence of 1% HSA; conditions: read-out: cAMP Rel EC50, hGcgR
[3] = target: hGcgR (Homo sapiens, UniProt P47871); test: Functional cAMP activation in the presence of 0.1% casein (no HSA); conditions: read-out: Relative cAMP EC50, hGcgR;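 also: intracellular cAMP rise after 30 min at 37 °C, read by HTRF against a cAMP standard curve, scaled from buffer only (0%) to maximal control ligand response (100%)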
[4] = target: T2, hGIPR (Homo sapiens, UniProt P48546); test: as above; conditions: read-out: Relative cAMP EC50, hGIPR;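 also: intracellular cAMP rise after 30 min at 37 °C read by HTRF against a standard curve, scaled between buffer alone (0%) and top control ligand concentration (100%), four-parameter fit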
T2 sequence (P48546 22-466): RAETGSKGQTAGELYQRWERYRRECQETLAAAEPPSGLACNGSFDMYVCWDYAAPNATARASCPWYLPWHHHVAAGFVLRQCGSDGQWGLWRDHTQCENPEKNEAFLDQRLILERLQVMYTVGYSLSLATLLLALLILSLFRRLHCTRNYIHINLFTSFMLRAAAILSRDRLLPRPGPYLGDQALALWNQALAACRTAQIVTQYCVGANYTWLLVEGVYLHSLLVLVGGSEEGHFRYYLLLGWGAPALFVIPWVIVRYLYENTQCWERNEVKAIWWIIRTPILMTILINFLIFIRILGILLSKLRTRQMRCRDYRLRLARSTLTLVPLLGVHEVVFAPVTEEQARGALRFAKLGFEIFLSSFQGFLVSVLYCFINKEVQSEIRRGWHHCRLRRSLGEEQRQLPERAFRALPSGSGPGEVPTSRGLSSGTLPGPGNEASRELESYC

[5] = target: T1, hGLP-1R; test: Functional cAMP activity in the presence of 1% HSA; conditions: read-out: cAMP Rel EC50, hGLP-1R
[6] = target: T2, hGIPR; test: Functional cAMP activity in the presence of 1% HSA; conditions: read-out: cAMP Rel EC50, hGIPR
[7] = in the presence of 0.1% casein (no HSA), geometric mean

Sequence of hGcgR (P47871 26-477): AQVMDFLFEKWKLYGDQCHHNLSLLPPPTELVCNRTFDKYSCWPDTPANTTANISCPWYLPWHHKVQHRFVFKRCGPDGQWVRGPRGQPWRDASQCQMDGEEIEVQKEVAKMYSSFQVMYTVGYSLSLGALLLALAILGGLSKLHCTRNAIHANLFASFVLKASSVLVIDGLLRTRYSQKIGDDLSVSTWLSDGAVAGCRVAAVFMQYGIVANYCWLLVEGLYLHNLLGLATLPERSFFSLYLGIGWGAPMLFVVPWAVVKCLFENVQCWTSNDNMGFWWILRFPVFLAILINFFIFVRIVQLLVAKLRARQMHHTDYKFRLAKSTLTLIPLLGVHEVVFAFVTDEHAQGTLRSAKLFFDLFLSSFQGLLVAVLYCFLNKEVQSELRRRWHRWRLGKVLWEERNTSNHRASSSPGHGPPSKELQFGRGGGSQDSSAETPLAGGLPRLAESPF
Sequence of human GcgR (P47871 26-477): as above
T1 sequence (P43220 24-463): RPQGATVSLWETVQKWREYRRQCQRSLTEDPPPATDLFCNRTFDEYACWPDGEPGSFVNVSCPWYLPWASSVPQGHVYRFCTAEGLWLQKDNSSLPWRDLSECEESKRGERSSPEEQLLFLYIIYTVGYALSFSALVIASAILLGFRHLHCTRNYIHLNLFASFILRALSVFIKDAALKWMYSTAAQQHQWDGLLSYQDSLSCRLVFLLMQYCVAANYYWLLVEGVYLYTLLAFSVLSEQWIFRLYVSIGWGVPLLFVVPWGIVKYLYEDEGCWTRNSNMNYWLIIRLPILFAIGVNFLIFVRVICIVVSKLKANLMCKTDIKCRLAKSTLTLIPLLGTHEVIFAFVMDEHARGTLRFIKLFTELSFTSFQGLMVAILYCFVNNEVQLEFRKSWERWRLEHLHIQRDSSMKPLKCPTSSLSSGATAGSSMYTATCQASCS

CC[C@H](C)[C@H](NC(=O)[C@H](Cc1ccccc1)NC(=O)[C@H](C)NC(=O)C(C)(C)NC(=O)[C@H](CCC(N)=O)NC(=O)[C@H](C)NC(=O)[C@H](CCCCNC(=O)COCCOCCNC(=O)CC[C@H](NC(=O)CCCCCCCCCCCCCCCCC(=O)O)C(=O)O)NC(=O)[C@H](CCCN)NC(=O)[C@H](CC(=O)O)NC(=O)[C@H](CC(C)C)NC(=O)[C@](C)(CC(C)C)NC(=O)[C@@H](NC(=O)[C@](C)(CO)NC(=O)[C@H](Cc1ccc(O)cc1)NC(=O)[C@H](CC(=O)O)NC(=O)[C@H](CO)NC(=O)[C@@H](NC(=O)[C@](C)(Cc1ccccc1)NC(=O)[C@@H](NC(=O)CNC(=O)[C@H](CCC(N)=O)NC(=O)C(C)(C)NC(=O)[C@@H](N)Cc1ccc(O)cc1)[C@@H](C)O)[C@@H](C)O)[C@@H](C)CC)C(=O)N[C@H](CCC(=O)O)C(=O)N[C@@H](Cc1ccc(O)cc1)C(=O)N[C@@H](CC(C)C)C(=O)N[C@@H](CC(C)C)C(=O)N[C@@H](CCC(=O)O)C(=O)NCC(=O)NCC(=O)N1CCC[C@H]1C(=O)N[C@@H](CO)C(=O)N[C@@H](CO)C(=O)NCC(=O)N[C@@H](CCC(=O)O)C(=O)N1CCC[C@H]1C(=O)N1CCC[C@H]1C(=O)N1CCC[C@H]1C(=O)N[C@@H](CCC(=O)O)C(N)=O [Example 420] (H-Y[Aib]QGT[αMeF]TSDY[αMeS]I[αMeL]LD[Orn]K([AEEA-γGlu-C18 diacid])AQ[Aib]AFI[dE]YLLEGGPSSGEPPPE-NH2)
EC50 [1]: 0.205 nM | EC50 [2]: 433 nM | EC50 [3]: 2.49 nM | EC50 [4]: 0.0131 nM | EC50 [5]: 31.3 nM | EC50 [6]: 2.61 nM

H-Y[Aib]QGTFTSDFS[Orn][αMeL]LDKK([AEEA-γGlu-γGlu-C18 diacid])AQ[Aib]AFIEYLLE[Aib]GHSSGAPPPSGS-NH2 [Example 243]
EC50 [1, 7]: 6.46 nM | EC50 [2]: 711 nM | EC50 [3, 7]: 6.86 nM | EC50 [4, 7]: 0.178 nM | EC50 [5]: 610 nM | EC50 [6]: 12.1 nM

H-Y[Aib]QGT[αMePhe(2-F)]TSD[4Pal][αMeS]I[αMeL]LD[Orn]K([γGlu-γGlu-C18 diacid])AQ[αMe4Pal]EFI[dE][αMeY]LIEGGPSSGAPPPSGSE-NH2 [Example 717]
EC50 [1]: 0.283 nM | EC50 [2]: 130 nM | EC50 [3]: 1.14 nM | EC50 [4]: 0.00721 nM | EC50 [5]: 21.4 nM | EC50 [6]: 0.561 nM

H-Y[Aib]QGTFTSD[4Pal]SQ[αMeL]LD[Orn]K([γGlu-γGlu-C18 diacid])AQ[αMe4Pal]AFI[dE][αMeY]LIEGGPSSGAPPPSGSEE-NH2 [Example 1044]
EC50 [1, 7]: 10.7 nM | EC50 [2]: 2410 nM | EC50 [3, 7]: 18.8 nM | EC50 [4, 7]: 0.896 nM | EC50 [5]: 1110 nM | EC50 [6]: 88.7 nM

H-Y[Aib]QGT[αMePhe(2-F)]TSD[4Pal][αMeS]I[αMeL]LD[Orn]K([γGlu-γGlu-C18 diacid])AQ[Aib][Orn]FI[dE][αMeY]LSEGGPSSGEPPPSGAEE-NH2 [Example 567]
EC50 [1]: 1.07 nM | EC50 [2]: 521 nM | EC50 [3]: 5.89 nM | EC50 [4]: 0.165 nM | EC50 [5]: 102 nM | EC50 [6]: 13.4 nM

CC[C@H](C)[C@H](NC(=O)[C@H](Cc1ccccc1)NC(=O)[C@H](C)NC(=O)C(C)(C)NC(=O)[C@H](CCC(N)=O)NC(=O)[C@H](C)NC(=O)[C@H](CCCCNC(=O)CC[C@H](NC(=O)CC[C@H](NC(=O)CCCCCCCCCCCCCCCCC(=O)O)C(=O)O)C(=O)O)NC(=O)[C@H](CCCCN)NC(=O)[C@H](CC(=O)O)NC(=O)[C@H](CC(C)C)NC(=O)[C@H](CC(C)C)NC(=O)[C@@H](NC(=O)[C@H](CO)NC(=O)[C@H](Cc1ccc(O)cc1)NC(=O)[C@H](CC(=O)O)NC(=O)[C@H](CO)NC(=O)[C@@H](NC(=O)[C@](C)(Cc1ccccc1F)NC(=O)[C@@H](NC(=O)CNC(=O)[C@H](CCC(N)=O)NC(=O)C(C)(C)NC(=O)[C@@H](N)Cc1ccc(O)cc1)[C@@H](C)O)[C@@H](C)O)[C@@H](C)CC)C(=O)N[C@@H](CCC(=O)O)C(=O)N[C@@H](Cc1ccc(O)cc1)C(=O)N[C@@H](CC(C)C)C(=O)N[C@@H](CCC(=O)O)C(=O)N[C@@H](CCC(=O)O)C(=O)NCC(=O)NCC(=O)N1CCC[C@H]1C(=O)N[C@@H](CO)C(=O)N[C@@H](CO)C(=O)NCC(=O)N[C@@H](C)C(=O)N1CCC[C@H]1C(=O)N1CCC[C@H]1C(=O)N1CCC[C@H]1C(=O)N[C@@H](CO)C(=O)N[C@@H](CCC(=O)O)C(N)=O [Example 433] (H-Y[Aib]QGT[αMePhe(2-F)]TSDYSILLDKK([γGlu-γGlu-C18 diacid])AQ[Aib]AFIEYLEEGGPSSGAPPPSE-NH2; N-terminus assumed)
EC50 [1]: 0.273 nM | EC50 [2]: 532 nM | EC50 [3]: 5.78 nM | EC50 [4]: 0.0206 nM | EC50 [5]: 43.4 nM | EC50 [6]: 15.3 nM

CC[C@H](C)[C@H](NC(=O)[C@H](Cc1ccccc1)NC(=O)C(C)(C)NC(=O)C(C)(C)NC(=O)[C@H](CCC(N)=O)NC(=O)[C@H](C)NC(=O)[C@H](CCCCNC(=O)COCCOCCNC(=O)CC[C@H](NC(=O)CCCCCCCCCCCCCCCCCCC(=O)O)C(=O)O)NC(=O)[C@H](CCCN)NC(=O)[C@H](CC(=O)O)NC(=O)[C@H](CC(C)C)NC(=O)[C@](C)(CC(C)C)NC(=O)[C@@H](NC(=O)[C@H](CO)NC(=O)[C@H](Cc1ccncc1)NC(=O)[C@H](CC(=O)O)NC(=O)[C@H](CO)NC(=O)[C@@H](NC(=O)[C@](C)(Cc1ccccc1F)NC(=O)[C@@H](NC(=O)CNC(=O)[C@H](CCC(N)=O)NC(=O)C(C)(C)NC(=O)[C@@H](N)Cc1ccc(O)cc1)[C@@H](C)O)[C@@H](C)O)[C@@H](C)CC)C(=O)N[C@H](CCC(=O)O)C(=O)N[C@@](C)(Cc1ccc(O)cc1)C(=O)N[C@@H](CC(C)C)C(=O)N[C@@H](CC(C)C)C(=O)N[C@@H](CCC(=O)O)C(=O)NCC(=O)NCC(=O)N1CCC[C@H]1C(=O)N[C@@H](CO)C(=O)N[C@@H](CO)C(=O)NCC(=O)N[C@@H](CCC(=O)O)C(=O)N1CCC[C@H]1C(=O)N1CCC[C@H]1C(=O)N1CCC[C@H]1C(=O)N[C@@H](CO)C(N)=O [Example 366]
EC50 [1, 7]: 0.744 nM | EC50 [2]: 1830 nM | EC50 [3, 7]: 4.51 nM | EC50 [4, 7]: 0.024 nM | EC50 [5]: 85.9 nM | EC50 [6]: 4.27 nM

CC[C@H](C)[C@H](NC(=O)[C@H](Cc1ccccc1)NC(=O)[C@H](CCCN)NC(=O)C(C)(C)NC(=O)[C@H](CCC(N)=O)NC(=O)[C@H](C)NC(=O)[C@H](CCCCNC(=O)[C@H](CCC(=O)O)NC(=O)CC[C@H](NC(=O)CCCCCCCCCCCCCCCCC(=O)O)C(=O)O)NC(=O)[C@H](CCCN)NC(=O)[C@H](CC(=O)O)NC(=O)[C@H](CC(C)C)NC(=O)[C@](C)(CC(C)C)NC(=O)[C@@H](NC(=O)[C@](C)(CO)NC(=O)[C@H](Cc1ccncc1)NC(=O)[C@H](CC(=O)O)NC(=O)[C@H](CO)NC(=O)[C@@H](NC(=O)[C@](C)(Cc1ccccc1F)NC(=O)[C@@H](NC(=O)CNC(=O)[C@H](CCC(N)=O)NC(=O)C(C)(C)NC(=O)[C@@H](N)Cc1ccc(O)cc1)[C@@H](C)O)[C@@H](C)O)[C@@H](C)CC)C(=O)N[C@H](CCC(=O)O)C(=O)N[C@@](C)(Cc1ccc(O)cc1)C(=O)N[C@@H](CC(C)C)C(=O)N[C@@H](CCC(N)=O)C(=O)N[C@@H](CCC(=O)O)C(=O)NCC(=O)NCC(=O)N1CCC[C@H]1C(=O)N[C@@H](CO)C(=O)N[C@@H](CO)C(=O)NCC(=O)N[C@@H](CCC(=O)O)C(=O)N1CCC[C@H]1C(=O)N1CCC[C@H]1C(=O)N1CCC[C@H]1C(=O)N[C@@H](CCC(=O)O)C(=O)NCC(=O)N[C@H](C(=O)N[C@@H](CCC(=O)O)C(=O)N[C@@H](CCC(=O)O)C(N)=O)[C@@H](C)O [Example 593]
EC50 [1]: 0.495 nM | EC50 [2]: 591 nM | EC50 [3]: 6.57 nM | EC50 [4]: 0.0484 nM | EC50 [5]: 35.3 nM | EC50 [6]: 2.71 nM
